Measured values taken from ChEMBL document CHEMBL1153212, “P4 capped amides and lactams as HCV NS3 protease inhibitors with improved potency and DMPK profile” (Bioorg Med Chem Lett, 2010).

Key:
[1] = AUC in rat at 10 mg/kg, po; assay type: ADME, organism-based; parameters: dose 10 mg/kg, route oral; conditions: plasma
Hepatitis C virus = experiment: Antiviral activity against HCV assessed as inhibition of viral RNA replication; assay type: functional, Hepacivirus hominis
[2] = Inhibition of HCV NS4A-tethered single chain NS3 serine protease by spectrophotometric assay; parameters: species or system Hepacivirus hominis
[3] = Selectivity for HCV NS4A-tethered single chain NS3 serine protease over human neutrophil elastase

Row | AUC [1] | EC90 (Hepatitis C virus) | Ki [2] | Structure (SMILES) | Ratio [3]
1 | 680 nM·h | 0.08 µM | 0.009 µM | C=CCNC(=O)C(=O)C(CCC)NC(=O)[C@@H]1[C@@H]2[C@H](CN1C(=O)[C@@H](NC(=O)N[C@@H](CN1CCCCC1=O)C(C)(C)C)C1Cc3ccccc3C1)C2(C)C (stereo not given in full) | 18
2 | – | 0.35 µM | 0.014 µM | CC(C)(C)NC(=O)N[C@H](C(=O)N1C[C@H]2[C@@H]([C@H]1C(=O)NC(CC1CCC1)C(=O)C(N)=O)C2(C)C)C(C)(C)C (stereo not given in full) [BOCEPREVIR] | –
3 | – | – | 0.04 µM | C=CCNC(=O)C(=O)C(CCC)NC(=O)[C@@H]1[C@@H]2[C@H](CN1C(=O)[C@@H](NC(=O)N[C@@H](CN1Cc3ccccc3C1=O)C(C)(C)C)C(C)(C)C)C2(C)C (stereo not given in full) | 1500
4 | – | – | 23 µM | C=CCNC(=O)C(=O)C(CCC)NC(=O)[C@@H]1[C@@H]2[C@H](CN1C(=O)[C@@H](NC(=O)N[C@@H](CN(C)C(=O)C(C)(C)C)C(C)(C)C)C(C)(C)C)C2(C)C (stereo not given in full) | –
5 | 1000 nM·h | 0.07 µM | 0.028 µM | C=CCNC(=O)C(=O)C(CC1CCC1)NC(=O)[C@@H]1[C@@H]2[C@H](CN1C(=O)[C@@H](NC(=O)N[C@@H](CN1CCC(C)(C)CC1=O)C(C)(C)C)C(C)(C)C)C2(C)C (stereo not given in full) | 1900
6 | 70 nM·h | 0.18 µM | 0.0049 µM | C=CCNC(=O)C(=O)C(CCC)NC(=O)[C@@H]1[C@@H]2[C@H](CN1C(=O)[C@@H](NC(=O)N[C@@H](CN1CCCNC1=O)C(C)(C)C)C(C)(C)C)C2(C)C (stereo not given in full) | 360
7 | – | – | 0.091 µM | C=CCNC(=O)C(=O)C(CCC)NC(=O)[C@@H]1[C@@H]2[C@H](CN1C(=O)[C@@H](NC(=O)N[C@@H](CN(C)C(=O)C1CC1)C(C)(C)C)C(C)(C)C)C2(C)C (stereo not given in full) | 280
8 | – | 0.7 µM | 0.037 µM | C=CCNC(=O)C(=O)C(CCC)NC(=O)[C@@H]1[C@@H]2[C@H](CN1C(=O)[C@@H](NC(=O)N[C@@H](CN1CCCC1=O)C(C)(C)C)C(C)(C)C)C2(C)C (stereo not given in full) | 60
9 | 490 nM·h | 0.06 µM | 0.005 µM | C#CCCC(NC(=O)[C@@H]1[C@@H]2[C@H](CN1C(=O)[C@@H](NC(=O)N[C@@H](CN1CCC(C)(C)CC1=O)C(C)(C)C)C(C)(C)C)C2(C)C)C(=O)C(=O)NCC=C (stereo not given in full) | 210
10 | – | – | 1.5 µM | C=CCNC(=O)C(=O)C(CCC)NC(=O)[C@@H]1[C@@H]2[C@H](CN1C(=O)[C@@H](NC(=O)OC(C)(C)C)C(C)(C)C)C2(C)C (stereo not given in full) | –
11 | 3520 nM·h | 0.07 µM | 0.015 µM | C=CCNC(=O)C(=O)C(CC1CC1)NC(=O)[C@@H]1[C@@H]2[C@H](CN1C(=O)[C@@H](NC(=O)N[C@@H](CN1CCC(C)(C)CC1=O)C(C)(C)C)C(C)(C)C)C2(C)C (stereo not given in full) | 870
12 | – | 0.2 µM | 0.019 µM | C=CCNC(=O)C(=O)C(CCC)NC(=O)[C@@H]1[C@@H]2[C@H](CN1C(=O)[C@@H](NC(=O)N[C@@H](CN1Cc3ccccc3CC1=O)C(C)(C)C)C(C)(C)C)C2(C)C (stereo not given in full) | 250
13 | – | 0.08 µM | 0.007 µM | C=CCNC(=O)C(=O)C(CCC)NC(=O)[C@@H]1[C@@H]2[C@H](CN1C(=O)[C@@H](NC(=O)N[C@@H](CN1CCC(C)(C)CC1=O)C(C)(C)C)C1Cc3ccccc3C1)C2(C)C (stereo not given in full) | 110
14 | – | 0.35 µM | 0.014 µM | C=CCNC(=O)C(=O)C(CCC)NC(=O)[C@@H]1[C@@H]2[C@H](CN1C(=O)[C@@H](NC(=O)N[C@@H](CN1CCCCC1=O)C(C)(C)C)C(C)(C)C)C2(C)C (stereo not given in full) | 320
15 | 2090 nM·h | 0.045 µM | 0.0019 µM | C=CCNC(=O)C(=O)C(CCC)NC(=O)[C@@H]1[C@@H]2[C@H](CN1C(=O)[C@@H](NC(=O)N[C@@H](CN1CCC(C)(C)CC1=O)C(C)(C)C)C1CCCCC1)C2(C)C (stereo not given in full) | 60
16 | 700 nM·h | 0.11 µM | 0.0018 µM | C=CCNC(=O)C(=O)C(CCC)NC(=O)[C@@H]1[C@@H]2[C@H](CN1C(=O)[C@@H](NC(=O)N[C@@H](CN1CCCCC1=O)C(C)(C)C)C1CCCCC1)C2(C)C (stereo not given in full) | 7
17 | – | 0.08 µM | 0.019 µM | C=CCNC(=O)C(=O)C(CCCC)NC(=O)[C@@H]1[C@@H]2[C@H](CN1C(=O)[C@@H](NC(=O)N[C@@H](CN1CCC(C)(C)CC1=O)C(C)(C)C)C(C)(C)C)C2(C)C (stereo not given in full) | 850
18 | – | – | 0.042 µM | C=CCNC(=O)C(=O)C(CCC)NC(=O)[C@@H]1[C@@H]2[C@H](CN1C(=O)[C@@H](NC(=O)N[C@@H](CN(C)C(=O)C(F)(F)F)C(C)(C)C)C(C)(C)C)C2(C)C (stereo not given in full) | 75
19 | – | 0.35 µM | 0.01 µM | C=CCNC(=O)C(=O)C(CCC)NC(=O)[C@@H]1[C@@H]2[C@H](CN1C(=O)[C@@H](NC(=O)N[C@@H](CN1CCCOC1=O)C(C)(C)C)C(C)(C)C)C2(C)C (stereo not given in full) | 100
20 | – | 0.55 µM | 0.037 µM | C=CCNC(=O)C(=O)C(CCC)NC(=O)[C@@H]1[C@@H]2[C@H](CN1C(=O)[C@@H](NC(=O)N[C@@H](CN(C)C(C)=O)C(C)(C)C)C(C)(C)C)C2(C)C (stereo not given in full) | 150
21 | – | – | 2.3 µM | C=CCNC(=O)C(=O)C(CCC)NC(=O)[C@@H]1[C@@H]2[C@H](CN1C(=O)[C@@H](NC(=O)N[C@@H](CN1CCCCC1)C(C)(C)C)C(C)(C)C)C2(C)C (stereo not given in full) | –
22 | 2300 nM·h | 0.08 µM | 0.017 µM | C=CCNC(=O)C(=O)C(CCC)NC(=O)[C@@H]1[C@@H]2[C@H](CN1C(=O)[C@@H](NC(=O)N[C@@H](CN1CCC(C)(C)CC1=O)C(C)(C)C)C(C)(C)C)C2(C)C (stereo not given in full) | 310
23 | – | – | 0.089 µM | C=CCNC(=O)C(=O)C(CCC)NC(=O)[C@@H]1[C@@H]2[C@H](CN1C(=O)[C@@H](NC(=O)N[C@@H](CN1CCCC(C)(C)C1=O)C(C)(C)C)C(C)(C)C)C2(C)C (stereo not given in full) | 90
24 | 530 nM·h | 0.06 µM | 0.008 µM | C=CCNC(=O)C(=O)C(CCC)NC(=O)[C@@H]1[C@@H]2[C@H](CN1C(=O)[C@@H](NC(=O)N[C@@H](CN1CC3CCC(C3)C1=O)C(C)(C)C)C(C)(C)C)C2(C)C (stereo not given in full) | 613
